Results published in patent US20260166162A1, “CARBON CHAIN SUBSTANCE FOR REGULATING TRANSMEMBRANE TRANSPORT AND FLUIDITY OF CELL MEMBRANES, AND PREPARATION AND USE THEREOF” (priority 2022, published 2026).
Like-named read-outs stand apart in the source and are kept apart here.

Experiments:
Format in all cases: cell-based
[1] = test system: SARS-CoV-2 pseudovirus (B.1.526.2)
[2] = test system: Hela cells; assay: Cell membrane fluidity (Laurdan fluorescence recovery) in Hela cells
[3] = test system: Epithelial cells; assay: Interaction of GFP-labelled complexes with cell membrane of epithelial cells (Example II-52, Table II-30); details: GFP-labelled complex, epithelial cells pretreated 4 hours, n=3
Description: The fatty acids were combined with water-soluble small molecules to form a complex, which were labeled with GFP fluorescence to detect cell membrane fluorescence. […] After the cells were stably adhered, the water-soluble fatty acid complexes in the following table were added to the cell culture medium. […] The medium with the drug was pipetted and replaced with normal DMEM medium. […] The green fluorescence intensity was analyzed by imageJ (see Table II-30, n=3).

Uridine diphosphate glucose-pentacosanoic acid [UDPGA-C25]
Inhibition rate (%) ([1]; 0.002 µM): 46.04 ± 0.98% | Inhibition rate (%) ([1]; 0.005 µM): 49.66 ± 0.58% | Inhibition rate (%) ([1]; 0.01 µM): 48.66 ± 1.59% | Inhibition rate (%) ([1]; 0.05 µM): 59.03 ± 1.25% | Inhibition rate (%) ([1]; 0.1 µM): 88.64 ± 4.53% | Inhibition rate (%) ([1]; 1 µM): -12.03 ± 0.83% | Inhibition rate (%) ([1]; 10 µM): -64.26 ± 0.59% | Inhibition rate (%) ([1]; 50 µM): 71.36 ± 0.88% | Inhibition rate (%) ([1]; 100 µM): 92.33 ± 0.73%

Uridine diphosphate glucose-oleic acid [UDPGA-OA]
Inhibition rate (%) ([1]; 0.002 µM): 44.54 ± 1.23% | Inhibition rate (%) ([1]; 0.005 µM): 50.06 ± 1.05% | Inhibition rate (%) ([1]; 0.01 µM): 54.94 ± 1.84% | Inhibition rate (%) ([1]; 0.05 µM): 67.33 ± 1.00% | Inhibition rate (%) ([1]; 0.1 µM): 84.96 ± 4.55% | Inhibition rate (%) ([1]; 1 µM): -82.33 ± 0.53% | Inhibition rate (%) ([1]; 10 µM): -54.00 ± 0.23% | Inhibition rate (%) ([1]; 50 µM): 73.06 ± 0.26% | Inhibition rate (%) ([1]; 100 µM): 83.61 ± 0.88%

Uridine diphosphate glucose-dodecanoic acid [UDPGA-C12]
Inhibition rate (%) ([1]; 0.002 µM): 56.54 ± 3.94% | Inhibition rate (%) ([1]; 0.005 µM): 79.66 ± 3.69% | Inhibition rate (%) ([1]; 0.01 µM): 91.38 ± 3.36% | Inhibition rate (%) ([1]; 0.05 µM): 81.33 ± 1.25% | Inhibition rate (%) ([1]; 0.1 µM): 87.47 ± 8.23% | Inhibition rate (%) ([1]; 1 µM): -92.93 ± 0.58% | Inhibition rate (%) ([1]; 10 µM): 73.16 ± 0.59% | Inhibition rate (%) ([1]; 50 µM): 67.37 ± 0.54% | Inhibition rate (%) ([1]; 100 µM): 53.98 ± 0.78%

cholyltaurine-tetradecanoic acid [cholyltaurine-C14]
Inhibition rate (%) ([1]; 2 nM, n=3): 70.54 ± 3.20% | Inhibition rate (%) ([1]; 5 nM, n=3): 79.66 ± 5.66% | Inhibition rate (%) ([1]; 10 nM, n=3): 81.84 ± 4.57% | Inhibition rate (%) ([1]; 50 nM, n=3): 80.88 ± 1.22% | Inhibition rate (%) ([1]; 100 nM, n=3): 79.06 ± 2.22% | Inhibition rate (%) ([1]; 1 μM, n=3): -94.23 ± 5.55% | Inhibition rate (%) ([1]; 10 μM, n=3): 4.26 ± 0.95% | Inhibition rate (%) ([1]; 50 μM, n=3): 67.55 ± 0.25% | Inhibition rate (%) ([1]; 100 μM, n=3): 58.98 ± 0.44%

CCCCCCCCCCCCCCCCCC(=O)NCCCCC(N)C(=O)O (stereo not drawn) [Lys-stearic acid]
Fluorescence recovery rate % ([2]; 2 nM, 20 s): 64.38% | Fluorescence recovery rate % ([2]; 2 nM, 40 s): 65.33% | Fluorescence recovery rate % ([2]; 2 nM, 60 s): 66.78% | Fluorescence recovery rate % ([2]; 2 nM, 80 s): 65.32% | Fluorescence recovery rate % ([2]; 5 nM, 20 s): 63.98% | Fluorescence recovery rate % ([2]; 5 nM, 40 s): 64.03% | Fluorescence recovery rate % ([2]; 5 nM, 60 s): 64.52% | Fluorescence recovery rate % ([2]; 5 nM, 80 s): 64.77% | Fluorescence recovery rate % ([2]; 10 nM, 20 s): 64.41% | Fluorescence recovery rate % ([2]; 10 nM, 40 s): 64.81% | Fluorescence recovery rate % ([2]; 10 nM, 60 s): 65.40% | Fluorescence recovery rate % ([2]; 10 nM, 80 s): 65.86% | Fluorescence recovery rate % ([2]; 50 nM, 20 s): 65.08% | Fluorescence recovery rate % ([2]; 50 nM, 40 s): 65.47% | Fluorescence recovery rate % ([2]; 50 nM, 60 s): 65.55% | Fluorescence recovery rate % ([2]; 50 nM, 80 s): 66.26% | Fluorescence recovery rate % ([2]; 50 μM, 20 s): 65.84% | Fluorescence recovery rate % ([2]; 50 μM, 40 s): 71.51% | Fluorescence recovery rate % ([2]; 50 μM, 60 s): 75.97% | Fluorescence recovery rate % ([2]; 50 μM, 80 s): 80.33% | Fluorescence recovery rate % ([2]; 100 μM, 20 s): 64.77% | Fluorescence recovery rate % ([2]; 100 μM, 40 s): 70.54% | Fluorescence recovery rate % ([2]; 100 μM, 60 s): 73.46% | Fluorescence recovery rate % ([2]; 100 μM, 80 s): 78.44% | Mean fluorescence intensity ([3]; 0 Hours after medium replaced): 105.3 ± 5.2 | Mean fluorescence intensity ([3]; 2 Hours after medium replaced): 103.4 ± 2.7 | Mean fluorescence intensity ([3]; 4 Hours after medium replaced): 98.3 ± 2.5 | Mean fluorescence intensity ([3]; 8 Hours after medium replaced): 56.5 ± 5.6 | Mean fluorescence intensity ([3]; 12 Hours after medium replaced): 46.7 ± 8.5 | Mean fluorescence intensity ([3]; 24 Hours after medium replaced): 39.0 ± 5.3

NC(COC(=O)CCCCCCCCCCC(=O)O)C(=O)O (stereo not drawn) [Ser-dodecanedioic acid]
Mean fluorescence intensity ([3]; 0 Hours after medium replaced): 127.3 ± 3.5 | Mean fluorescence intensity ([3]; 2 Hours after medium replaced): 126.3 ± 5.2 | Mean fluorescence intensity ([3]; 4 Hours after medium replaced): 118.3 ± 7.3 | Mean fluorescence intensity ([3]; 8 Hours after medium replaced): 69.3 ± 8.4 | Mean fluorescence intensity ([3]; 12 Hours after medium replaced): 59.3 ± 5.5 | Mean fluorescence intensity ([3]; 24 Hours after medium replaced): 45.3 ± 1.6
